According to patent US11071770B2, “Methods for detecting cardiac damage” (Acorda Therapeutics, Inc., priority 2007, dated 2021):
Marks after values point to notes of the source that are not given here. Where a SMILES comes first, the peptide text is derived from it. The star is where a group is joined. Cbz = O=C(OCc1ccccc1)*

Legend:
[1] = tested on: cTnI; experiment: Ubiquitinylation of cTnI (immunoprecipitation, ubiquitin antibody); assay type: cell-based, rat; conditions: NRCM, Dox or Dox+NRG1
[2] = tested on: cytochrome c release; experiment: Cytochrome c release (cell fractionation and Western blot); assay type: cell-based, rat; conditions: NRCM, Dox or Dox+NRG1
[3] = tested on: C57BL/6 mice; experiment: Hemodynamic measurements by direct left ventricular catheterization, body and heart weights; assay type: in vivo, mouse
[4] = tested on: serum creatine kinase (CK); experiment: Serum creatine kinase (CK) level; assay type: in vivo, mouse; conditions: four days after doxorubicin injection
Procedure: (§1) FIGS. 1A-1C show survival graphs (A), histograms (B-C), and immunoblots (C). […] Fourteen day survival was analyzed by the Kaplan-Meier method.
Serum creatine kinase (CK) levels, an index of cardiac injury, were also assessed to provide an additional read-out of heart function.

[5] = tested on: caspase 3, 6 and 9 as well as caspase-10, 2, and 5; experiment: Caspase activation assay in cardiomyocytes; assay type: cell-based, rat; conditions: Dox or Dox+NRG1
Excerpt: To investigate whether NRG1 inhibited doxorubicin-induced caspase degradation of cTnI and cTnT, the present inventors first identified the specific caspases that were responsible for doxorubicin-induced degradation of cTnI and cTnT. […] In addition, down-regulation of cTnI was blocked by inhibitors for caspase-10 (extrinsic pathway), caspase-2, caspase-13 or caspase-5.

[6] = tested on: cTnI, cTnT and cTnC protein levels; experiment: Cardiac structural protein levels in heart by Western blot; assay type: in vivo, mouse
Procedure: as §1
Eight to ten week old C57BL/6 male mice were used for analyses wherein heart samples were isolated. […] Heart samples (n=3-4 per group) were collected and snap-frozen in liquid nitrogen.

[7] = tested on: mRNA of cTnI, cTnT, GATA4, MEF2c and Nkx2.5; experiment: mRNA levels by quantitative RT-PCR in cardiomyocytes; assay type: cell-based, rat; conditions: for mRNA level of cTnI and cTnT: cardiomyocytes, Dox or Dox+NRG1
[8] = tested on: cTnI and cTnT protein levels; experiment: cTnI and cTnT protein levels in hearts of doxorubicin-treated WT and dnPI3K mice; assay type: in vivo, mouse; conditions: two weeks after doxorubicin injection
Procedure: FIGS. 5A-5C show a survival graph (A), histograms (B), and an immunoblot (C). […] Fourteen-day survival was analyzed by the Kaplan-Meier method. FIG. 5B depicts hemodynamic measurements in doxorubicin-treated dnPI3K mice. […] Hemodynamic measurements were performed six days after the doxorubicin treatment.
The present inventors measured cTnI and cTnT protein levels in doxorubicin-treated WT and dnPI3K mice.

[9] = tested on: mice with cardiac myocyte-specific overexpression of a dominant negative PI3K; experiment: Survival of doxorubicin-treated WT and dnPI3K transgenic mice (Kaplan-Meier); assay type: in vivo, mouse; conditions: doxorubicin 20 mg/kg i.p., fourteen-day
[10] = tested on: mTOR, P70S6K, S6 and eIF4G; experiment: Phosphorylation of translational molecules by Western blot; assay type: cell-based, rat; conditions: cardiomyocytes, 48 hours after the treatment
Procedure: The phosphorylation levels of mTOR, P70S6K, S6, 4EBP and EIF4G were analyzed by Western blot analysis.
We assessed the activation of several translation machineries and related signaling pathways in Dox-Placebo and Dox-NRG1 treated cardiomyocytes.

[11] = tested on: C57BL/6 mice; experiment: Two-week survival of doxorubicin-treated mice (Kaplan-Meier); assay type: in vivo, mouse; conditions: two weeks after doxorubicin 20 mg/kg i.p.; NRG1 0.75 mg/kg s.c. daily vs placebo; doxorubicin vs non-treated control
Procedure: as §1
Cardiac function was assessed by direct left ventricular (LV) catheterization four days and two weeks after doxorubicin treatment. Two-week survival was analyzed by the Kaplan-Meier methods.

[12] = tested on: neonatal rat cardiomyocytes; conditions: NRCM, doxorubicin 1 uM
[13] = WT mice, NRG1 0.75 mg/kg s.c. or placebo
[14] = doxorubicin-treated cardiomyocytes

COc1cccc2c1C(=O)c1c(O)c3c(c(O)c1C2=O)C[C@@](O)(C(=O)CO)C[C@@H]3O[C@H]1C[C@H](N)[C@H](O)[C@H](C)O1 [doxorubicin]
ubiquitinylation of cTnI [1]: increased
cytochrome c release to the cytosol [2]: induced increasing
BW ([3]; C57BL/6 mice, doxorubicin 20 mg/kg i.p. single dose with placebo or NRG1 0.75 mg/kg s.c. daily, five days after doxorubicin): 20 ± 0.4 g
Cardiac Output ([3]; as E1): 1185 ± 203 µL/min
EF ([3]; as E1): 17 ± 2 %
HW/BW ([3]; as E1): 4.1 ± 0.1 mg/g
HW/TL ([3]; as E1): 5.1 ± 0.1 mg/mm
LVEDP ([3]; as E1): 3.6 ± 0.9^ mmHg
LVW/BW ([3]; as E1): 3.5 ± 0.1^ mg/g
LVW/TL ([3]; as E1): 4.4 ± 0.1 mg/mm
dP/dt max ([3]; as E1): 7067 ± 884 ^ mmHg/sec
dP/dt min ([3]; as E1): 5021 ± 602*^ mmHg/sec
LVSP ([3]; as E1, LV systolic pressure): 84 ± 2*^ mmHg
HW ([3]; as E1, heart weight): 83 ± 3 mg
LVW ([3]; as E1, left ventricular weight): 70 ± 1 mg
TL ([3]; as E1, tibia length): 16.3 ± 0.2 ^ mm
serum CK level compared to control mice [4]: significantly increased
activation of caspase 3, 6 and 9 as well as caspase-10, 2, and 5 [5]: significantly increased
levels of cardiac structural proteins (α-sarcomeric actin, α-actinin, TnT, TnI, TnC, tropomyosin) in hearts ([6]; doxorubicin 20 mg/kg i.p.): significantly decreased
mRNA level of cTnI and cTnT [7]: decreased
cTnI protein level in dnPI3K hearts [8]: decrease
cTnT protein levels in hearts of doxorubicin-treated mice compared to control mice [8]: No changes
survival rate [9, 13]: 33%
phosphorylation levels of mTOR, P70S6K, S6 and eIF4G [10]: decreased
survival [11]: significantly decreased

CC(C)C[C@@H](C=O)NC(=O)[C@H](CC(C)C)NC(=O)[C@H](CC(C)C)NC(=O)OCc1ccccc1 [MG132] (Cbz-Leu-Leu-Leu-aldehyde)
effect on doxorubicin-induced down-regulation of cTnI [12]: blocked

B1: NRG1: GGF2, a recombinant neuregulin-1; gift from Acorda Therapeutics (protein)
chain: GNEAAPAGASVCYSSPPSVGSVQELAQRAAVVIEGKVHPQRRQQGALDRKAAAAAGEAGAWGGDREPPAAGPRALGPPAEEPLLAANGTVPSWPTAPVPSAGEPGEEAPYLVKVHQVWAVKAGGLKKDSLLTVRLGTWGHPAFPSCGRLKEDSRYIFFMEPDANSTSRAPAAFRASFPPLETGRNLKKEVSRVLCKRCALPPRLKEMKSQESAAGSKLVLRCETSSEYSSLRFKWFKNGNELNRKNKPQNIKIQKKPGKSELRINKASLADSGEYMCKVISKLGNDSASANITIVESNATSTSTTGTSHLVKCAEKEKTFCVNGGECFMVKDLSNPSRYLCKCPNEFTGDRCQNYVMASFYSTSTPFLSLPE
ubiquitinylation of cTnI [1]: abolished this effect
cytochrome c release to the cytosol [2]: inhibited this effect
activation of caspase 3, 6 and 9 as well as caspase-10, 2, and 5 [5]: significantly inhibited
protein levels of cTnI, cTnT and cTnC in doxorubicin-injured hearts ([6]; NRG1 0.75 mg/kg s.c. daily, doxorubicin 20 mg/kg i.p., five days after doxorubicin): significantly increased
protein levels of α-sarcomeric actin, α-actinin and tropomyosin in doxorubicin-injured hearts ([6]; NRG1 injection in vivo): had no effects
mRNA level of cTnI and cTnT [7]: maintained
mRNA level of GATA4 [7, 14]: maintained
mRNA level of MEF2c and Nkx2.5 [7, 14]: slightly increased
cTnI protein level in dnPI3K hearts [8]: abolished doxorubicin-induced down-regulation
survival rate [9, 13]: 67%
survival rate ([9]; dnPI3K mice, NRG1 0.75 mg/kg s.c.): 56%
survival [11]: significantly improved survival
